This passage reports water solubility results from patent US20050120493A1, “Process for exchanging the anions of cationic compounds” (priority 2002, published 2005).

The structures appear in SMILES notation.

This data set in a line: solubility in water of the dye salts before and after anion exchange. It counts as physicochemical. Conditions: salt form of the cationic dye as given per example.
As for `Cn1cc[n+](C)c1N=Nc1ccc(N)cc1.[Cl-]`, the water solubility is given as 3.7%. `COc1ccc(Nc2ccc(/N=N/c3n(C)cc[n+]3C)cc2)cc1.[Cl-]`: the water solubility is on record as 0.35%.

Turning to `CCN(CC)c1ccc2nc3ccc(=[N+](CC)CC)cc-3oc2c1`, the water solubility entry is listed as “less than 0.4%”. `Cn1cc[n+](C)c1/N=N/c1ccc(NCCCCCCNc2ccc(/N=N/c3n(C)cc[n+]3C)cc2)cc1.[Cl-].[Cl-]`: the water solubility is less than 0.03%.
